Patent US20040209934A1, “Protein phosphate inhibitors” (priority 2001, published 2004)
Read-outs that look alike come from different tables or passages of the source. *1 amine or outer side, *2 acyl side, *3 side chain or, on linkers, in order; H or OH if unused. Where a SMILES comes first, the peptide text is derived from it. Bridges are numbered along the chain shown (N, C = ends). [ ]: non-standard residue; d: D form. Adda = CO[C@@H](Cc1ccccc1)[C@@H](C)/C=C(C)/C=C/[C@H](N[*:1])[C@H](C)C(=O)[*:2]; dAsp(3S-Me) = C[C@H](C(=O)[*:3])[C@@H](N[*:1])C(=O)[*:2]; d(γGlu) = O=C(O)[C@@H](CCC(=O)[*:2])N[*:1]; NMeDha = C=C(NC)C(=O)O

Tests used:
PP1 [1] = target: T1, PP1 (Homo sapiens, UniProt P62136); test: Protein phosphatase assay with [32P]-glycogen phosphorylase a as substrate, PP1; format: biochemical; design: made in house
Experimental: Protein phosphatase assays were carried out essentially as described (Collins, E.; Sim, A. T. R.; Methods in Molecular Biology 1998, 93, 79-102) using [^32P]-glycogen phosphorylase a as substrate and recombinant PP1 (Bernt, N. Methods in Molecular Biology, 1998, 93, 67-78) or partially purified (chicken skeletal muscle) PP2A catalytic subunits (Mackintosh, C. In Protein Phosphorylation: A Practical Approach, Ed D G Hardie, IRL, 1993). Briefly, enzyme activity was measured at 30 ° C. in a buffer (final volume of […]) containing 50 mM Tris-HCl (pH 7.5), 1 mM EGTA, 0.1 mM EDTA, 5 mM Caffeine, 0.1% mercaptoethanol, 0.3 mg/mL BSA. The concentration of PP1 or PP2A used was such that the reaction was limited to 15% dephosphorylation to ensure linearity. The reaction was started with the addition of […] [^32P]-glycogen phosphorylase a and terminated after 20 minutes by the addition of […] ice-cold 70% TCA. After 10 minutes on ice the sample was centrifuged and a […] aliquot of the supematant was removed for scintillation counting of the [^32p] released during the reaction.

[2] = tested on: HL60 (human leukaemia, p53 nul); test: cells; format: cell-based
Excerpt: (§1) The MTT assay can be used assess cytotoxicity.

[3] = tested on: HT29 (human colon carcinoma, p53 mt); test: cells; format: cell-based
Excerpt: as §1

[4] = tested on: L1210 (murine leukaemia, p53 mt); test: cells; format: cell-based; conditions: Mus musculus, Table 3, read-out: Cytotoxicity IC50, L1210
Excerpt: as §1

[5] = tested on: SW480 (human colon carcinoma, p53 wt); test: cells; format: cell-based; conditions: Table 3, read-out: Cytotoxicity IC50, SW480
Excerpt: as §1

PP1 [6] = target: T1, PP1; conditions: read-out: PP1 protein phosphatase inhibition (IC50), cited from earlier work
PP2A = PP2A (Homo sapiens, UniProt P67775); conditions: read-out: PP2A protein phosphatase inhibition (IC50), cited from earlier work
[7] = tested on: WiDr (human colon carcinoma, p53 mt); test: cells; format: cell-based; conditions: 72 h exposure, background Table 2, read-out: Cytotoxicity IC50, WiDr Colon
Excerpt: as §1

[8] = tested on: 143B (143BTK-, human oesteosarcoma); test: cells; conditions: 72 h, read-out: Cytotoxicity IC50, 143B Ostesarcoma
Excerpt: (§2) The cell lines chosen for study include both normal (non-cancer) and tumour-derived cell lines that represent both haematopoietic and solid tumor types with varying cell cycle control mechanisms (ie p53 status); CCD-18Co (normal human colon), L1210 (murine leukaemia, p53 mt), HL60 (human leukaemia, p53 nul), A2780 (human ovarian carcinoma, p53 wt), ADDP (cisplatin resistant A2780 cells, p53 mt), HCT116 (human colon carcinoma, p53 wt), SW480 (human colon carcinoma, p53 wt), WiDr (human colon carcinoma, p53 mt), HT29 (human colon carcinoma, p53 mt) and 143BTK-(human oesteosarcoma) cells.
(§3) The MTT assay can be used assess cytotoxicity. This assay determines cell viability by the ability of mitochondrial dehydrogenase to produce formazan crystals from 3-(4,5-dimethylthiazol-2-yl)2,5-diphenyltetrazolium bromide. The viable cell number/well is directly proportional to the production of formazan, which following solubilization, can be measured spectrophotometrically (540 nm). […] This technique is also used by the NCI(National Cancer Institute, USA) to screen for new anticancer agents. The MTT assay may be performed 72 h after exposure of the cells to varying doses of the phosphatase inhibitors. Since these agents are likely to interfere with the cell cycle it is important to test the cytotoxicity for at least two-three cell divisions.

[9] = tested on: A2780 (human ovarian carcinoma, p53 wt); test: cells; conditions: A2780, 72 h, read-out: Cytotoxicity IC50, A2780 Ovarian
Excerpt: as §2, §3

[10] = Table 2 cantharimides, average of three experiments in triplicate, read-out: PP1 Inhibition IC50
[11] = HL-60, Table 3, read-out: Cytotoxicity IC50, HL60
[12] = HT-29, Table 3, read-out: Cytotoxicity IC50, HT29
[13] = Table 3 summary, read-out: PP1 Inhibition
[14] = naturally occurring toxins, background Table 1

T1 sequence (P62136 whole entry): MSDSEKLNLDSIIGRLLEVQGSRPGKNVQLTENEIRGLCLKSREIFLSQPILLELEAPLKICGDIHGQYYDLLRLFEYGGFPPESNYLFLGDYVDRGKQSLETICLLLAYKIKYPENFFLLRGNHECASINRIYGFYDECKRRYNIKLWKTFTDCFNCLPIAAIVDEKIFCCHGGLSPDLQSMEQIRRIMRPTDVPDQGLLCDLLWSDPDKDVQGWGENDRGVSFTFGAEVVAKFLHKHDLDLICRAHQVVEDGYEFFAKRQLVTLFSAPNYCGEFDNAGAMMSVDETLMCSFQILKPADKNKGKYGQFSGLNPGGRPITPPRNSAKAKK
Chain of PP2A (P67775 whole entry): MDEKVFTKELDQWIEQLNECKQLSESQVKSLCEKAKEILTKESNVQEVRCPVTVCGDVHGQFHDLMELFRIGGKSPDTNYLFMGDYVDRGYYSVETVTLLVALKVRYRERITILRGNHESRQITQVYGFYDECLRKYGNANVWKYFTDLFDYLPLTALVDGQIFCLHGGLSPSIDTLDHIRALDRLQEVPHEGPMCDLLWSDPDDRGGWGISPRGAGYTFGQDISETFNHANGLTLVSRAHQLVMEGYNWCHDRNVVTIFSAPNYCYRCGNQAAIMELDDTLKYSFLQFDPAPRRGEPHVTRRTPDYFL

Structure (SMILES): CC[C@@H](C)[C@H](C(=O)O)N1C(=O)C2C3CCC(O3)C2C1=O (stereo partly shown) [Compound 10]
- IC50 (PP1 [1]; [10]): > 1000 µM

Structure (SMILES): CC[C@H](C)[C@@H](C(=O)O)N1C(=O)C2C3CCC(O3)C2C1=O (stereo partly shown) [Compound 11]
- IC50 (PP1 [1]; [10]): > 1000 µM

Structure (SMILES): O=C(O)[C@@H](Cc1c[nH]c2ccccc12)N1C(=O)C2C3CCC(O3)C2C1=O (stereo partly shown) [Compound 12]
- IC50 (PP1 [1]; read-out: PP1 IC50): 770 ± 146 µM

Structure (SMILES): O=C(O)[C@H](Cc1c[nH]c2ccccc12)N1C(=O)C2C3CCC(O3)C2C1=O (stereo partly shown) [Compound 13]
- IC50 (PP1 [1]; read-out: PP1 IC50): 312 ± 153 µM

Structure (SMILES): O=C(O)[C@@H](Cc1cnc[nH]1)N1C(=O)C2C3CCC(O3)C2C1=O (stereo partly shown) [Compound 14]
- IC50 [2, 11]: 21 ± 13 µM
- IC50 [3, 12]: 28 ± 9 µM
- IC50 [4]: 6 ± 1 µM
- IC50 [5]: 32 ± 12 µM
- IC50 (PP1 [1]; [10]): 3.22 ± 0.7 µM
- IC50 (PP1 [1]; [13]): 3.22 ± 0.7 µM

Structure (SMILES): O=C(O)[C@H](Cc1cnc[nH]1)N1C(=O)C2C3CCC(O3)C2C1=O (stereo partly shown) [Compound 15]
- IC50 [2, 11]: 55 ± 24 µM
- IC50 [3, 12]: 28 ± 10 µM
- IC50 [4]: 30 ± 14 µM
- IC50 [5]: 61 ± 30 µM
- IC50 (PP1 [1]; [10]): 2.82 ± 0.6 µM
- IC50 (PP1 [1]; [13]): 2.82 ± 0.6 µM

Structure (SMILES): NC(=O)CC[C@H](C(=O)O)N1C(=O)C2C3CCC(O3)C2C1=O (stereo partly shown) [Compound 18]
- IC50 (PP1 [1]; [10]): 95 ± 5 µM

Structure (SMILES): CSCC[C@@H](C(=O)O)N1C(=O)C2C3CCC(O3)C2C1=O (stereo partly shown) [Compound 19]
- IC50 (PP1 [1]; [10]): > 1000 µM

Structure (SMILES): C[C@@](O)(/C=C/[C@H]1CC=CC(=O)O1)[C@@H](C[C@@H](O)\C=C/C=C\C=C\CO)OP(=O)(O)O [Fostriecin]
- IC50 (PP1 [6]; [14]): 131 µM
- IC50 (PP2A; [14]): 3.4 nM

Structure (SMILES): C=C1C(=O)N[C@H](C)C(=O)N[C@@H](CC(C)C)C(=O)N[C@@H](C(=O)O)[C@H](C)C(=O)N[C@@H](CCCNC(=N)N)C(=O)N[C@@H](/C=C/C(C)=C/[C@H](C)[C@H](Cc2ccccc2)OC)[C@H](C)C(=O)N[C@@H](C(=O)O)CCC(=O)N1C [Microcystin LR] (R[Adda][d(γGlu)][NMeDha][dA]L[dAsp(3S-Me)]-OH; lactam N-7)
- IC50 (PP1 [6]): 0.0017 µM
- IC50 (PP2A): 0.04 nM

Structure (SMILES): C=C1[C@@H](O)[C@@H]2O[C@]3(CC[C@H](/C=C/[C@@H](C)[C@@H]4CC(C)=C[C@@]5(O[C@H](C[C@@](C)(O)C(=O)O)CC[C@H]5O)O4)O3)CC[C@H]2O[C@@H]1[C@@H](O)C[C@H](C)[C@H]1O[C@@]2(CCCCO2)CC[C@H]1C [Okadaic acid]
- IC50 (PP2A; [14]): 0.51 nM

Structure (SMILES): CCOC(=O)C1C(C(=O)O)[C@@H]2CC[C@H]1O2 (stereo partly shown) [R = CH3CH2]
- IC50 (PP1 [1]; read-out: PP1 IC50): 2.96 µM

Structure (SMILES): CO[C@H]([C@H](O)CC(=O)[C@@H](C)[C@@H](O)CC[C@@H](C)[C@@H]1O[C@]2(CC[C@@H](C)[C@H](CC[C@H](C)C(C)=O)O2)CC[C@@H]1C)[C@H](OC(=O)C[C@@H](O)C1=C(C)C(=O)OC1=O)C(C)C [Tautomycin]
- IC50 (PP1 [6]; [14]): 0.0003 µM
- IC50 (PP2A; [14]): 1 nM

Structure (SMILES): C[C@@]12C(=O)OC(=O)[C@]1(C)[C@H]1CC[C@@H]2O1 [drawing 2]
- IC50 ([2]; HL-60, 72 h exposure, background Table 2, read-out: Cytotoxicity IC50, HL60 Leukaemia): 10 ± 2 µM
- IC50 ([3]; HT-29, 72 h exposure, background Table 2, read-out: Cytotoxicity IC50, HT29 Colon): 6.5 ± 0.5 µM
- IC50 [7]: 6.1 ± 0.5 µM
- IC50 [8]: 10 ± 1 µM
- IC50 [9]: 10 ± 2 µM
